Laboratory results taken from PubChem BioAssay (NCI).
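Five concentrations, 48 hours, 96-well plates. GI50 is the concentration that inhibits growth by half. Definition used: TGI = concentration required for complete inhibition of growth.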

What was measured:
Experiment in all cases: inhibition of tumour cell growth, NCI panel, 48 h
COLO 205 colon = tested on: COLO 205 colon
HCT-15 colon = tested on: HCT-15 colon
HS 578T breast = tested on: HS 578T breast
LOX IMVI melanoma = tested on: LOX IMVI melanoma
MCF7 breast = tested on: MCF7 breast
MDA-MB-231 breast = tested on: MDA-MB-231 breast
NCI-H226 lung = tested on: NCI-H226 lung
NCI-H460 lung = tested on: NCI-H460 lung
OVCAR-4 ovarian = tested on: OVCAR-4 ovarian
RXF 393 renal = tested on: RXF 393 renal
SK-MEL-2 melanoma = tested on: SK-MEL-2 melanoma
SK-MEL-5 melanoma = tested on: SK-MEL-5 melanoma
SR leukemia = tested on: SR leukemia
TK-10 renal = tested on: TK-10 renal
UACC-257 melanoma = tested on: UACC-257 melanoma

| Compound | TGI (COLO 205 colon) [µM] | TGI (HCT-15 colon) [µM] | TGI (HS 578T breast) [µM] | TGI (LOX IMVI melanoma) [µM] | TGI (MCF7 breast) [µM] | TGI (MDA-MB-231 breast) [µM] | TGI (NCI-H226 lung) [µM] | TGI (NCI-H460 lung) [µM] | TGI (OVCAR-4 ovarian) [µM] | TGI (RXF 393 renal) [µM] | TGI (SK-MEL-2 melanoma) [µM] | TGI (SK-MEL-5 melanoma) [µM] | TGI (SR leukemia) [µM] | TGI (TK-10 renal) [µM] | TGI (UACC-257 melanoma) [µM] | GI50 (MDA-MB-231 breast) [µM] | GI50 (NCI-H226 lung) [µM] | GI50 (OVCAR-4 ovarian) [µM] | GI50 (RXF 393 renal) [µM] | GI50 (SK-MEL-2 melanoma) [µM] |
| --- | --- | --- | --- | --- | --- | --- | --- | --- | --- | --- | --- | --- | --- | --- | --- | --- | --- | --- | --- | --- |
| Cn1c(=O)c2c(no[n+]2[O-])c2ccccc21 | 35.8 | 29.5 | 62.2 | 31.4 | > 100 | 48 | 40.4 | 35.3 | 45.5 | 62 | 28.7 | 26 | 52.3 | 56.5 | 33.2 |  |  |  |  |  |
| CC(CCC#N)(CCC#N)C(=O)CC(O)(C(F)(F)F)C(F)(F)F | 4.9 | 10.6 | 60.6 | 8.14 | 21.2 | 14.2 | 45.3 | 39 | 8.01 | 5.03 | 89.2 | 28.5 | 3.77 | 25.1 | 21.1 |  |  |  |  |  |
| Oc1ccc(-c2nc(-c3ccc(F)cc3)c(-c3ccc4ccccc4n3)[nH]2)cc1 | 29.7 | 23.6 | 28.6 | 27.9 | 18.7 | 41.4 | 28.6 | 18.4 | 26.3 | 31.9 | 32.9 | 17.7 | > 100 | 26 | 26.3 |  |  |  |  |  |
| CC(C)=C1C(=O)C[C@]2(C)C[C@H]3/C(=C(/C)CCC12)CC[C@@]3(C)O (stereo not given in full) | > 50 | > 50 | > 50 | > 50 | > 50 | > 50 | > 50 |  | > 50 | > 50 | > 50 | > 50 | > 50 | > 50 | > 50 |  |  |  |  |  |
| Cc1c(CNc2ccc(C(=O)NC(CC(=O)O)C(=O)O)cc2)ccc2nc(N)nc(N)c12 (stereo not given) |  | > 1000 | > 1000 | > 1000 | > 1000 | > 1000 | > 1000 | > 1000 | > 1000 | > 1000 | > 1000 | > 1000 | > 1000 |  | > 1000 | > 1000 | > 1000 | > 1000 | > 1000 | > 1000 |
| Cc1ccc(NC(=S)NNC(=O)c2cc(-c3ccccc3)nc3ccccc23)cc1 | 35.3 | 25.9 | 38.2 |  | 31.5 | 36.3 | 39.7 | 47.9 | 35.6 | 26.6 | 24 | 35.3 | 6.72 | 29.1 | 33 |  |  |  |  |  |
| COc1ccc(OC)c(C2Cc3cnc4nc(N)nc(N)c4c3C2)c1 (stereo not given) | 49 | > 100 | > 100 | 47.6 | > 100 | 52.6 |  | 73.6 | 53.8 | 43.2 | 42.2 | > 100 | 44.9 | 79.8 | 40.1 |  |  |  |  |  |
| Cc1cc(OCc2nnc3n2N=C(c2cc(F)c(Cl)cc2Cl)/C(=C/c2ccc(Cl)cc2)S3)ccc1Cl |  | 63.4 | 46.1 | 50.1 | 87.9 | > 100 | > 100 | > 100 | 59.8 | 39.4 | > 100 | 36.5 | 30.4 | > 100 | > 100 |  |  |  |  |  |
| C#CCN(CC#C)C(=O)C(=O)c1c[nH]c2ccc(OC)cc12 | 60 | 29.5 | 37.6 | 33.6 | 34.7 | 31 | 38.7 | 29.7 |  | 29.8 |  | 31.1 | 23.2 | 34.3 | 34 |  |  |  |  |  |
| COc1ccc(CN(Cc2ccc(OC)cc2)C(=O)CC2(O)C=CCC2)cc1 (stereo not given) | > 100 | > 100 | > 100 | > 100 | > 100 | > 100 | > 100 | > 100 | > 100 |  | > 100 | > 100 | > 100 | > 100 | > 100 |  |  |  |  |  |
| CN1C(=O)C(CC=O)(C(C)(C)C)c2ccccc21 (stereo not given) | > 100 | > 100 | > 100 | > 100 | > 100 | > 100 |  | > 100 | > 100 | > 100 | > 100 | > 100 | > 100 |  | > 100 |  |  |  |  |  |
| O=C(NS(=O)(=O)OCC(Cl)(Cl)Cl)SCCC(F)(F)C(F)(F)C(F)(F)C(F)(F)C(F)(F)C(F)(F)F | 33.5 | 47.4 | 42.1 | 45.6 | 40.6 | 61.9 | 70.7 | 41.5 | 31.8 | 44.6 | 66.8 |  | > 100 | 62.6 | > 100 |  |  |  |  |  |
| Cc1ccc(C(=O)N/N=C(\N=Nc2ccccc2[N+](=O)[O-])c2ccc(N(C)C)cc2)cc1 | > 100 | > 100 | > 100 | > 100 | > 100 | > 100 | > 100 | > 100 | > 100 |  | > 100 | > 100 | > 100 | > 100 | > 100 |  |  |  |  |  |
| COc1ccc(OC)c(N2C(=O)CSC2c2cc(OC)c(OC)c(OC)c2)c1 (stereo not given) | > 100 | > 100 | > 100 | > 100 | > 100 | > 100 | > 100 | > 100 | > 100 |  | > 100 | > 100 | > 100 | > 100 | > 100 |  |  |  |  |  |
| COc1ccc(C(OC(C)=O)C2C(=C(C#N)C#N)c3ccccc3C2=C(C#N)C#N)cc1 (stereo not given) |  | > 100 | 91.6 | > 100 | > 100 | > 100 | > 100 | > 100 | > 100 | > 100 | 83.8 | > 100 | 41 | > 100 | > 100 |  |  |  |  |  |
